Among the test systems are SNB-75 CNS; CCRF-CEM leukemia; UACC-257 melanoma; A549 NSCLC; SW-620 colon; SK-MEL-28 melanoma; NCI-H226 lung; LOX IMVI melanoma; MCF7 breast; NCI-H23 lung; RXF 393 renal.
Test in all cases: inhibition of tumour cell growth, NCI panel, 48 h

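All cell lines were grown in 96-well plates and treated with compound for 48 hours. Definition used: TGI = concentration required for complete inhibition of growth.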

As to `N[C@@H]1C[C@H](N)c2c(Cl)sc(Cl)c21`, the TGI with SNB-75 CNS, with CCRF-CEM leukemia, in the experiment on UACC-257 melanoma, in the experiment on A549 NSCLC, in the experiment with SW-620 colon and in the experiment on SK-MEL-28 melanoma was more than 100 µM in each case. Also, the TGI with NCI-H226 lung, in the experiment on LOX IMVI melanoma, in the experiment with MCF7 breast, with NCI-H23 lung and with RXF 393 renal was more than 100 µM in each case.
In the case of `COc1ccc(NC=O)c(C(O)CCNC(C)=O)c1` (stereo unspecified), the TGI in the experiment with SNB-75 CNS, in the experiment with CCRF-CEM leukemia, with UACC-257 melanoma, with A549 NSCLC, in the experiment on SW-620 colon and with NCI-H226 lung was more than 100 µM in each case. For the same molecule, the TGI in the experiment with LOX IMVI melanoma, in the experiment with MCF7 breast, in the experiment on NCI-H23 lung and in the experiment on RXF 393 renal was more than 100 µM in each case.
`CN(C)c1ccc(C2CC(=O)CC(c3ccc(N(C)C)cc3)C23C(=O)NC(=O)NC3=O)cc1` (stereo unspecified): the TGI in the experiment with SNB-75 CNS, in the experiment with CCRF-CEM leukemia, in the experiment on UACC-257 melanoma, in the experiment on SW-620 colon, in the experiment with SK-MEL-28 melanoma and with NCI-H226 lung was more than 25 µM throughout. Besides, the TGI in the experiment with LOX IMVI melanoma, with MCF7 breast, with NCI-H23 lung and with RXF 393 renal was more than 25 µM each time.
For `O=C1C(NCCc2cc(Br)c(O)c(Br)c2)=CC(=O)c2ncccc21`, the TGI is 5.34 µM with SNB-75 CNS; 23.5 µM in the experiment on CCRF-CEM leukemia; 7.73 µM in the experiment on UACC-257 melanoma; 9.89 µM with A549 NSCLC; more than 57.7 µM in the experiment with SW-620 colon; 10 µM in the experiment with SK-MEL-28 melanoma. In addition, the TGI in the experiment with NCI-H226 lung stood at 8.52 µM; in the experiment with LOX IMVI melanoma, 8.69 µM; in the experiment on MCF7 breast, 17.4 µM; with NCI-H23 lung, 2.98 µM; with RXF 393 renal, 29.1 µM.
As for `Nc1ncc2c(n1)-c1ccccc1OC2NC1CC1` (stereo unspecified), the TGI in the experiment on SNB-75 CNS, with CCRF-CEM leukemia, with UACC-257 melanoma, with A549 NSCLC, with SW-620 colon and in the experiment with NCI-H226 lung was more than 100 µM throughout. Further, the TGI with LOX IMVI melanoma, with MCF7 breast, with NCI-H23 lung and in the experiment on RXF 393 renal was more than 100 µM in each case.
As to `CC1CCCc2c(-c3ccc(Cl)cc3)nc(N)c(C#N)c21` (stereo unspecified), the TGI in the experiment with SNB-75 CNS is 50.6 µM; in the experiment on CCRF-CEM leukemia, more than 100 µM; with UACC-257 melanoma, 61.5 µM; in the experiment on SW-620 colon, more than 100 µM; with SK-MEL-28 melanoma it was more than 100 µM; with NCI-H226 lung, 66.2 µM. Also, the TGI in the experiment on LOX IMVI melanoma was 68 µM; in the experiment with MCF7 breast, more than 100 µM; in the experiment with NCI-H23 lung, 99.4 µM; in the experiment on RXF 393 renal, 93.2 µM.
Turning to `CC(=O)Nc1c(C)cc(OCC(=O)O)cc1C`, the TGI with SNB-75 CNS, in the experiment on CCRF-CEM leukemia, with UACC-257 melanoma, with A549 NSCLC, with SW-620 colon and with SK-MEL-28 melanoma was more than 100 µM each time. Moreover, the TGI with NCI-H226 lung, with LOX IMVI melanoma, in the experiment with MCF7 breast, with NCI-H23 lung and in the experiment with RXF 393 renal was more than 100 µM in each case.
For the molecule `COc1ccc(NS(=O)CCc2ccccc2)cc1` (stereo unspecified), the TGI in the experiment on SNB-75 CNS, in the experiment on CCRF-CEM leukemia, in the experiment on UACC-257 melanoma, with A549 NSCLC, in the experiment on SW-620 colon and with SK-MEL-28 melanoma was more than 100 µM in each case. The TGI in the experiment on NCI-H226 lung, in the experiment on LOX IMVI melanoma, with MCF7 breast, in the experiment on NCI-H23 lung and in the experiment on RXF 393 renal was more than 100 µM each time.
Take `CCC(=O)N(c1ccccc1)C(C)CN1CCC(O)(c2ccccc2)CC1` (stereo unspecified): the TGI in the experiment with SNB-75 CNS, with CCRF-CEM leukemia, in the experiment with UACC-257 melanoma, in the experiment with A549 NSCLC, in the experiment on SK-MEL-28 melanoma and with NCI-H226 lung was more than 100 µM in each case. Besides, the TGI in the experiment with LOX IMVI melanoma, in the experiment on MCF7 breast, in the experiment with NCI-H23 lung and in the experiment on RXF 393 renal was more than 100 µM throughout.
As to `CN(C)c1ccc(C(C#N)N2CCCN(C(C#N)c3ccc(N(C)C)cc3)C2c2ccc(N(C)C)cc2)cc1` (stereo unspecified), the TGI in the experiment with SNB-75 CNS, in the experiment with CCRF-CEM leukemia, in the experiment with UACC-257 melanoma, in the experiment with A549 NSCLC, in the experiment with SW-620 colon and in the experiment on SK-MEL-28 melanoma was more than 100 µM each time. For the same molecule, the TGI with NCI-H226 lung, in the experiment with LOX IMVI melanoma, with MCF7 breast, with NCI-H23 lung and with RXF 393 renal was more than 100 µM throughout.
Regarding `CCOP(=O)(CS(C)=O)O[C@@H]1C[C@H](C)CC[C@H]1C(C)C` (stereo partly specified), the TGI was more than 27.5 µM in the experiment on SNB-75 CNS; 11.5 µM in the experiment on CCRF-CEM leukemia; 18.7 µM in the experiment on UACC-257 melanoma; 17.7 µM with A549 NSCLC; 14.6 µM in the experiment with SW-620 colon; more than 100 µM in the experiment on SK-MEL-28 melanoma. For the same molecule, the TGI came out at 12.2 µM in the experiment with NCI-H226 lung; 3.77 µM in the experiment on LOX IMVI melanoma; 11.1 µM in the experiment with MCF7 breast; 17.6 µM in the experiment on NCI-H23 lung; 7.83 µM with RXF 393 renal.
With `NC(=S)N/N=C/c1cc(CN2CCOCC2)c(N)cn1`, the TGI in the experiment with SNB-75 CNS was 89.4 µM; with CCRF-CEM leukemia, more than 100 µM; with UACC-257 melanoma, more than 100 µM; with SW-620 colon, more than 100 µM; with NCI-H226 lung, 45.8 µM; in the experiment with LOX IMVI melanoma, more than 100 µM. In addition, the TGI with MCF7 breast, with NCI-H23 lung and with RXF 393 renal was more than 100 µM each time.
For the molecule `COc1ccc(CSCc2cc(OC)c(OC)c(OC)c2)cc1`, the TGI in the experiment on SNB-75 CNS is more than 100 µM; with CCRF-CEM leukemia, more than 100 µM; in the experiment with UACC-257 melanoma, more than 31.6 µM; in the experiment on A549 NSCLC, more than 100 µM; with SW-620 colon it was more than 100 µM; in the experiment on SK-MEL-28 melanoma it was more than 100 µM. For the same molecule, the TGI in the experiment with NCI-H226 lung was more than 100 µM; in the experiment with LOX IMVI melanoma it was more than 31.6 µM; in the experiment with MCF7 breast it was more than 100 µM; with NCI-H23 lung it was more than 100 µM; with RXF 393 renal, more than 100 µM.

(Values after PubChem BioAssay (NCI).)
